From patent US9783536B2, “Nitrogen-containing heterocyclic compound or salt thereof” (FUJIFILM Corporation, priority 2013, dated 2017)
Structures can show the parent of a compound that is named as a salt. Where two headings read alike, the source gives them in different places.

How the values were obtained:
Format in all cases: biochemical
human PI3Kα protein = target: T1, human PI3Kα protein (Homo sapiens, UniProt P42336); experiment: PI3Kα enzyme assay (ADP-Glo); details: read-out: PI3Kα enzyme inhibitory activity
T1 construct: purchased Carna Biosciences, Inc; host or cells: baculovirus expression system
In short: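 Biotinylated human PI3Kα (baculovirus-expressed, 4.5 nmol/L) pre-incubated 15 min with compound in Tris-HCl pH 7.5, MgCl2, BSA; reaction 60 min at 25° C with 50 μmol/L PIP2 and 100 μmol/L ATP final. ADP quantified by ADP-Glo luminescence; IC50 calculated.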

[1] = target: T2, GST fusion human ERK2 protein (Homo sapiens, UniProt P28482); experiment: ERK2 enzyme assay (1); details: read-out: ERK2 enzyme inhibitory activity (1)
T2 construct: purchased Carna Biosciences, Inc; host or cells: E. coli expression system
In short: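 Enzyme (2.5 nmol/L, E. coli-expressed) preincubated with compound 15 min at room temperature in HEPES/MgCl2/DTT/Brij35 buffer, pH 7.5; reaction with 4.25 μmol/L FL-Peptide 8 and 43.1 μmol/L ATP for 120 min at 25 °C. Phosphorylated peptide fraction quantified by mobility-shift separation after EDTA stop; IC50 calculated.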

[2] = target: T2, GST fusion human ERK2 protein; experiment: ERK2 enzyme assay (2); details: read-out: ERK2 enzyme inhibitory activity (2)
In short: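 GST-tagged human ERK2 expressed in E. coli (1.25 nmol/L) was preincubated with compound for 15 min at room temperature in pH 7.5 Hepes buffer with MgCl2, DTT and Brij35. Reaction with FL-Peptide 8 (final 4.25 μmol/L) and ATP (final 1 mmol/L) ran 120 min at 25 °C; EDTA stopped it, and phosphorylated peptide was quantified by mobility-shift separation to derive IC50.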

[3] = 4.5 nmol/L PI3Kα, PIP2 50 μmol/L, ATP 100 μmol/L
[4] = 2.5 nmol/L ERK2, ATP 43.1 μmol/L

T2 sequence (P28482 whole entry, the tested form may be a part): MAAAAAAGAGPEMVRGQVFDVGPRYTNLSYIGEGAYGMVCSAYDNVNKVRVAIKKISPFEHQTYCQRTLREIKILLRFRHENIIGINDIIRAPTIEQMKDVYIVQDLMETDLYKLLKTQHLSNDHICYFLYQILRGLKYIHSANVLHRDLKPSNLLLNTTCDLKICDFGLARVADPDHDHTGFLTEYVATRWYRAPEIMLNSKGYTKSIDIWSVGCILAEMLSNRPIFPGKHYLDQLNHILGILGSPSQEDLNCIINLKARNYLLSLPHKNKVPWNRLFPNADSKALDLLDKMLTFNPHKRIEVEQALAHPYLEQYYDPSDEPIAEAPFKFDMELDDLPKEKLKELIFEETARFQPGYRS
T1 sequence (P42336 whole entry): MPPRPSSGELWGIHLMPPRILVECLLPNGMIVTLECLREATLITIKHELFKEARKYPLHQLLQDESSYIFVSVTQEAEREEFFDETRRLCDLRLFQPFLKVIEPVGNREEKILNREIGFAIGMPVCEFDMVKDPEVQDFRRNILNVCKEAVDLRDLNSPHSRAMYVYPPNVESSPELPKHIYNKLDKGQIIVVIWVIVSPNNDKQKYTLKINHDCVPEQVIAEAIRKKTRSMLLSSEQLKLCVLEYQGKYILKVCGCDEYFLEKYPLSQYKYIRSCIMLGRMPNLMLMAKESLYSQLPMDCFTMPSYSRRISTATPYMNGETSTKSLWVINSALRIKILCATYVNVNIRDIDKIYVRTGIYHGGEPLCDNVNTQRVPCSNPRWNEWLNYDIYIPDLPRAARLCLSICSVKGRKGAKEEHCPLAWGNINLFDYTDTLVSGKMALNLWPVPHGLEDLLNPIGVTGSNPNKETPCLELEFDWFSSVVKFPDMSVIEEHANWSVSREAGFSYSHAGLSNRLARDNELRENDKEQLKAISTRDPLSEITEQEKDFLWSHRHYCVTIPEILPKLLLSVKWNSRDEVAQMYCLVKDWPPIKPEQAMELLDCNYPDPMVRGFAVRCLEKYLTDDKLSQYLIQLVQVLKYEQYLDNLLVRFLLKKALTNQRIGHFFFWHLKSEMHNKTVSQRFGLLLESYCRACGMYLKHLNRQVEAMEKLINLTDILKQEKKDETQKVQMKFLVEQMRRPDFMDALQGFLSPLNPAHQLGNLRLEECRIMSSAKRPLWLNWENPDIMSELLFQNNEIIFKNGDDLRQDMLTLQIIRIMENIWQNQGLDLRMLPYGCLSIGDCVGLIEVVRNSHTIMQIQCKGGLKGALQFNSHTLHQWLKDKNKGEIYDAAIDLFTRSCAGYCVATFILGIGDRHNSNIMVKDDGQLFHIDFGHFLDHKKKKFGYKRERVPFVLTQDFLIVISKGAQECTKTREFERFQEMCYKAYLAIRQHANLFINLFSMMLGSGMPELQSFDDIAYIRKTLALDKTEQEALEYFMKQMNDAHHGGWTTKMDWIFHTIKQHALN
T1 sequence (P27986 whole entry partner): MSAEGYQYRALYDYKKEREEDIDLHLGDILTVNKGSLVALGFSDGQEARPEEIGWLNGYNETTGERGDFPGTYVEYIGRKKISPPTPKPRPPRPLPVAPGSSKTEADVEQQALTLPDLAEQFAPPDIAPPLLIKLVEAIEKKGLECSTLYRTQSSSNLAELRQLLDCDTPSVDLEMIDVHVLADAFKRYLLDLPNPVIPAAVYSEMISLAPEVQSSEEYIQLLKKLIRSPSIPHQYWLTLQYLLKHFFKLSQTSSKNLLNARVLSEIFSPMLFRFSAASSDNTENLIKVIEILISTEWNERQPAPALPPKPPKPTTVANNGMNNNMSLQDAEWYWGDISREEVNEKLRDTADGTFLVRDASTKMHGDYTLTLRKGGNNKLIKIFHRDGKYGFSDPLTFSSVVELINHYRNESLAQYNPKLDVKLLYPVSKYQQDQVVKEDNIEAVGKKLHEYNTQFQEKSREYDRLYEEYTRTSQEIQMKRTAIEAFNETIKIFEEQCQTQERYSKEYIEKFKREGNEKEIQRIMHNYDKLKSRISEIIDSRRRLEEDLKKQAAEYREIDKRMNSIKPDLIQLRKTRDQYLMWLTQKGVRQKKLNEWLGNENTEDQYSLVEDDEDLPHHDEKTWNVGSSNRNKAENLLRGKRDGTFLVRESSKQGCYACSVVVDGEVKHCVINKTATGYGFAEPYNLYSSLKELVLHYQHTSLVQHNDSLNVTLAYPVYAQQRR

Structure (SMILES) | IC50 (human PI3Kα protein; [3]) [nM] | IC50 [1, 4] [nM] | IC50 ([2]; 1.25 nmol/L ERK2, ATP 1 mmol/L) [nM] | IC50 (human PI3Kα protein) [nM] | IC50 ([1]; ERK2 enzyme assay (1)) [nM] | IC50 ([2]; ERK2 enzyme assay (2)) [nM]
Cc1cnnc(Nc2ccc3ncc(Nc4cncc(OCCN5CCOCC5)c4)cc3n2)c1 [Example 0158, N^2-(5-methylpyridazin-3-yl)-N^7-(5-(2-morpholinoethoxyl)pyridin-3-yl)-1,5-naphthyridine-2,7-diamine] | < 1000 | < 1000 | 1000 to 10000 | – | – | –
CNC(=O)CCn1cc(-c2cnc3ccc(Nc4nnc(C5CCCC5)s4)nc3c2)cn1 [Example 0342] | – | – | – | < 1000 | < 1000 | < 1000
Cc1c(-c2cnc3ccc(Nc4nnc(C(C)C)s4)nc3c2)cnn1CCCN1CCCC1 [Example 0360, 5-Isopropyl-N-(7-(5-methyl-1-(3-(pyrrolidin-1-yl)propyl)-1H-pyrazol-4-yl)-1,5-naphthyridin-2-yl)-1,3,4-thiadiazole-2-amine] | – | – | – | < 1000 | < 1000 | < 1000
c1cc(-c2ccnc3ccc(Nc4nnc(CC5CCCO5)s4)nc23)ccn1 (stereo not drawn) [Example 0276] | – | – | – | < 1000 | < 1000 | 1000 to 10000
CC(C)c1nnc(Nc2ccc3ncc(Nc4ccc(CN5CCOCC5)nc4)cc3n2)s1 [Example 0096] | < 1000 | < 1000 | < 1000 | – | – | –
NC(=O)CCn1cc(-c2cnc3ccc(Nc4nnc(C5CCCC5)s4)nc3c2)cn1 [Example 0343] | – | – | – | < 1000 | < 1000 | < 1000
CC(C)c1cnnc(Nc2ccc3ncc(-c4cnn(C5CCN(C)CC5)c4)cc3n2)c1 [Example 0370, N-(5-isopropylpyridazin-3-yl)-7-(1-(1-methylpiperidin-4-yl)-1H-pyrazol-4-yl)-1,5-naphthyridine-2-amine] | – | – | – | < 1000 | < 1000 | < 1000
c1ncc(OCCCN2CCOCC2)cc1Nc1cnc2ccc(Nc3nnc(C4CCCC4)s3)nc2c1 [Example 0084] | < 1000 | < 1000 | < 1000 | – | – | –
CC(C)c1nnc(Nc2ccc3ncc(-c4cn(C)nc4-c4cccnc4)cc3n2)s1 [Example 0134] | < 1000 | < 1000 | < 1000 | – | – | –
c1nc2ccc(Nc3nnc(C4CCCC4)s3)nc2cc1-c1cnn(CCCN2CCC2)c1 [Example 0345] | – | – | – | < 1000 | < 1000 | < 1000
Cn1cc(-c2cnc3ccc(Nc4nnc(C5CCCC5)s4)nc3c2)c(C2CC2)n1 [Example 0132] | < 1000 | < 1000 | < 1000 | – | – | –
Cn1cc(-c2cnc3ccc(Nc4nnc(CS(C)(=O)=O)s4)nc3c2)cn1 [Example 0257, N-(7-(1-methyl-1H-pyrazol-4-yl)-1,5-naphthyridin-2-yl)-5-((methylsulfonyl)methyl)-1,3,4-thiadiazole-2-amine] | – | – | – | 1000 to 10000 | < 1000 | < 1000
CCOC(=O)Cc1nnc(Nc2ccc3ncc(-c4cnn(CCCN5CCCC5)c4)cc3n2)s1 [Example 0242, ethyl (5-((7-(1-(3-(pyrrolidin-1-yl)propyl)-1H-pyrazol-4-yl)-1,5-naphthyridin-2-yl)amino)-1,3,4-thiadiazol-2-yl)acetate] | – | – | – | < 1000 | < 1000 | < 1000
CCC(C)c1cnnc(Nc2ccc3ncc(-c4cnn(CCCN5CCCC5)c4)cc3n2)c1 (stereo not drawn) [Example 0294] | – | – | – | < 1000 | < 1000 | < 1000
c1ccc2ncc(Nc3cnc4ccc(Nc5nnc(C6CCCC6)s5)nc4c3)cc2c1 [Example 0094] | < 1000 | 10000 to 50000 | 10000 to 50000 | – | – | –
CCc1nnc(Nc2ccc3ncc(-c4cnn(C)c4)cc3n2)s1 [Example 0163] | < 1000 | < 1000 | < 1000 | – | – | –
CCOc1c(-c2cnn(C)c2)cnc2ccc(Nc3nnc(C4CCCC4)s3)nc12 [Example 0358, 5-Cyclopentyl-N-(8-ethoxy-7-(1-methyl-1H-pyrazol-4-yl)-1,5-naphthyridin-2-yl)-1,3,4-thiadiazole-2-amine] | – | – | – | < 1000 | < 1000 | < 1000
COCCCn1cc(-c2cnc3ccc(Nc4nnc(C5CCCC5)s4)nc3c2)cn1 [Example 0339, 5-cyclopentyl-N-(7-(1-(3-methoxypropyl)-1H-pyrazol-4-yl)-1,5-naphthyridin-2-yl)-1,3,4-thiadiazole-2-amine] | – | – | – | < 1000 | < 1000 | < 1000
Cn1cc(-c2cnc3ccc(Nc4nnc(C5CCCC5)s4)nc3c2Cl)cn1 [Example 0350, N-(8-chloro-7-(1-methyl-1H-pyrazol-4-yl)-1,5-naphthyridin-2-yl)-5-cyclopentyl-1,3,4-thiadiazole-2-amine] | – | – | – | 1000 to 10000 | < 1000 | < 1000
CN1CCC(c2nnc(Nc3ccc4ncc(-c5cnn(C)c5)cc4n3)s2)C1 (stereo not drawn) [Example 0252, N-(7-(1-methyl-1H-pyrazol-4-yl)-1,5-naphthyridin-2-yl)-5-(1-methylpyrrolidin-3-yl)-1,3,4-thiadiazole-2-amine] | – | – | – | 1000 to 10000 | < 1000 | < 1000
C[Si](C)(C)CCOCn1cc(-c2cnc3ccc(Nc4nncs4)nc3c2)cn1 [Example 0025, N-(7-(1-((2-(trimethylsilyl)ethoxy)methyl)-1H-pyrazol-4-yl)-1,5-naphthyridin-2-yl)-1,3,4-thiadiazole-2-amine] | 1000 to 10000 | < 1000 | < 1000 | – | – | –
CNS(=O)(=O)c1nnc(Nc2ccc3ncc(-c4cnn(C)c4)cc3n2)s1 [Example 0189, methyl ((5-((7-(1-methyl-1H-pyrazol-4-yl)-1,5-naphthyridin-2-yl)amino)-1,3,4-thiadiazol-2-yl)sulfonyl)amide sodium salt] | < 1000 | < 1000 | < 1000 | – | – | –
CC(C)c1nnc(Nc2ccc3ncc(-c4cnn(C)c4)cc3n2)s1 [Example 0167, 5-Isopropyl-N-(7-(1-methyl-1H-pyrazol-4-yl)-1,5-naphthyridin-2-yl)-1,3,4-thiadiazole-2-amine] | < 1000 | < 1000 | < 1000 | – | – | –
COCCn1cc(-c2cnc3ccc(Nc4cc(C(C)C)cnn4)nc3c2)cn1 [Example 0471, N-(5-isopropylpyridazin-3-yl)-7-(1-(2-methoxyethyl)-1H-pyrazol-4-yl)-1,5-naphthyridine-2-amine] | – | – | – | < 1000 | < 1000 | < 1000
C1=C(c2cnc3ccc(Nc4nnc(C5CCCC5)s4)nc3c2)CCOC1 [Example 0327] | – | – | – | 1000 to 10000 | < 1000 | < 1000
F[C@@H]1CCN(CCCn2cc(-c3cnc4ccc(Nc5nnc(C6CCCC6)s5)nc4c3)cn2)C1 [Example 0351, (R)-5-cyclopentyl-N-(7-(1-(3-(3-fluoropyrrolidin-1-yl)propyl)-1H-pyrazol-4-yl)-1,5-naphthyridin-2-yl)-1,3,4-thiadiazole-2-amine] | – | – | – | < 1000 | < 1000 | < 1000
Cn1cc(-c2cnc3ccc(Nc4nncs4)nc3c2)cn1 [Example 0026, N-(7-(1-methyl-1H-pyrazol-4-yl)-1,5-naphthyridin-2-yl)-1,3,4-thiadiazole-2-amine] | < 1000 | < 1000 | < 1000 | – | – | –
OCCN1CCC(n2cc(-c3cnc4ccc(Nc5nnc(C6CCCC6)s5)nc4c3)cn2)CC1 [Example 0336, 2-(4-(4-(6-((5-cyclopentyl-1,3,4-thiadiazol-2-yl)amino)-1,5-naphthyridin-3-yl)-1H-pyrazol-1-yl)piperidin-1-yl)ethanol] | – | – | – | < 1000 | < 1000 | < 1000
